Kd data for 8 compounds are collected here from publication PMC10763615, “Identification and engineering of potent cyclic peptides with selective or promiscuous binding through biochemical profiling and bioinformatic data analysis” (RSC Chemical Biology, 2023).

Common to all, as to type: binding
One test concerns the target T1, FGF-R4 ECD (Homo sapiens, UniProt P22455).
T1 construct: DNA constructs for the extracellular domain (ECD) of human FGF-; HPC4 (C); made in house; host or cells: HEK 293-6E
T1 sequence (P22455 22-369 limits assumed): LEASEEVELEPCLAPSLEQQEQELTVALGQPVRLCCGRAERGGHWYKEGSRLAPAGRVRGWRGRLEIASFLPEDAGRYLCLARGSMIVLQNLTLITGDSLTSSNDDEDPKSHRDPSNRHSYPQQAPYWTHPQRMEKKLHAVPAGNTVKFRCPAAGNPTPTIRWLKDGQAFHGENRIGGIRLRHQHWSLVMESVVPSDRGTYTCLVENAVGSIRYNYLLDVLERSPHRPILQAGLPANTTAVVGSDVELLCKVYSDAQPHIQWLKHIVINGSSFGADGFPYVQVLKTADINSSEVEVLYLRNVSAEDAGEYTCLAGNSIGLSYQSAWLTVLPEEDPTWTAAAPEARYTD
As to the kind of experiment: single concentration BLI of crude peptides. In outline: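 Streptavidin biosensors carrying biotinylated FGF receptor ECD were immersed in peptide (~1 μM for crude single-point runs, a concentration series for purified peptides) and then in peptide-free buffer. KD was obtained by fitting the BLI association and dissociation curves.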

Another test concerns the target T2, FGF-R1C ECD (Homo sapiens, UniProt P11362).
T2 sequence (P11362 22-376 limits assumed): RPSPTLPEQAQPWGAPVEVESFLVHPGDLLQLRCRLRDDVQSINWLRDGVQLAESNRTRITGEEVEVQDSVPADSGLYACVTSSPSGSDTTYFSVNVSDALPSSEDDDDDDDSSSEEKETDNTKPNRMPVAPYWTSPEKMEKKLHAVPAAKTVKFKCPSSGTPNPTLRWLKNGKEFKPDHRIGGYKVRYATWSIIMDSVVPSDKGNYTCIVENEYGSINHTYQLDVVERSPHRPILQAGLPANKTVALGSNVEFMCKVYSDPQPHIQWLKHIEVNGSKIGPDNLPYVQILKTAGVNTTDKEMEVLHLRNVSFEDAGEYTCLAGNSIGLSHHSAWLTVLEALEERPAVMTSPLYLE
The test can be described thus: biochemical. Also on record: DNA constructs for the extracellular domain (ECD) of human FGF-; HPC4 (C); made in house; host or cells: HEK 293-6E. The method in brief:
(§1)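 Biolayer interferometry with biotinylated FGF-R ECD on streptavidin biosensors in PBS pH 7.4, 0.05% Tween-20, 0.01% BSA. Multi-concentration: purified peptide dilution series fitted to a multi-point KD model.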

A further test concerns the target T3, FGF-R3C ECD (Homo sapiens, UniProt P22607).
T3 sequence (P22607 23-375 limits assumed): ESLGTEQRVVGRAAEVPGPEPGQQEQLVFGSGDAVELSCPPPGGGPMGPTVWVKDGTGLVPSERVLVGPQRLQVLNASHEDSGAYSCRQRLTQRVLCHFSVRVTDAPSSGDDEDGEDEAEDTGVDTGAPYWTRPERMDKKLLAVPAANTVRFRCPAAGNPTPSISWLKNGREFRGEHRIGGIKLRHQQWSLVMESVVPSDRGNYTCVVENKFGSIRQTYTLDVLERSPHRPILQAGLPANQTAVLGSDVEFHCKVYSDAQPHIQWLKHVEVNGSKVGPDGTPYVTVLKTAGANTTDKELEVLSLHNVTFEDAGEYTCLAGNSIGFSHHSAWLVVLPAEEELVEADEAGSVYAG
The test can be described thus: biochemical. Further details: DNA constructs for the extracellular domain (ECD) of human FGF-; HPC4 (C); made in house; host or cells: HEK 293-6E. The method in brief: as §1

Setting [1] is: crude T18 selection 1 (1:1:1) peptides, single concentration BLI (Table S4), read-out: KD (4).
The mark [2] stands for this setting: crude NNK peptides, single concentration BLI (Table S3), read-out: KD (4).

As a reminder, the Kd is the free concentration of one partner at which half of the binding sites on the other are occupied at equilibrium, for simple one-to-one binding.

Read-outs that look alike come from different tables or passages of the source. Positions of bridges follow the written chain, without caps; N, C: chain ends. Residues, ends and D or L forms follow the SMILES beside them. No end group written: not given here.

On to `CC[C@H](C)[C@@H]1NC(=O)[C@H](CCCCN)NC(=O)[C@H](Cc2ccc(O)cc2)NC(=O)[C@H](Cc2ccc(O)cc2)NC(=O)[C@H]([C@@H](C)CC)NC(=O)[C@H](CC(C)C)NC(=O)[C@H](Cc2c[nH]cn2)NC(=O)[C@H](CCCNC(=N)N)NC(=O)[C@H](CCCCN)NC(=O)[C@@H](NC(=O)[C@H](CCSC)NC(C)=O)CSSC[C@@H](C(=O)NCC(=O)N[C@@H](CO)C(=O)NCC(=O)N[C@@H](CO)C(=O)N[C@@H](CC(=O)O)C(=O)N[C@@H](Cc2ccc(O)cc2)C(=O)N[C@@H](CCCCN)C(=O)N[C@@H](CC(=O)O)C(=O)N[C@@H](CC(=O)O)C(=O)N[C@@H](CC(=O)O)C(=O)N[C@@H](CC(=O)O)C(=O)N[C@@H](CCCCN)C(N)=O)NC(=O)[C@H](CCCNC(=N)N)NC(=O)[C@H](C)NC1=O` (Ac-MCKRHLIYYKIARCGSGSDYKDDDDK-NH2; disulfide 2-14), for which the figures for the Kd on FGF-R4 ECD (setting [1]), at FGF-R1C ECD and at FGF-R3C ECD were 1 nM, greater than 10 µM and 1.54 µM, respectively.

As for “GSGSDYKDDDDK-NH2 [flag, reference compound]”, the Kd at FGF-R4 ECD was greater than 10000 nM; at FGF-R1C ECD it was greater than 10 µM; on FGF-R3C ECD, greater than 10 µM.

In the case of `CC[C@H](C)[C@@H]1NC(=O)[C@H](Cc2ccc(O)cc2)NC(=O)[C@H](Cc2c[nH]cn2)NC(=O)[C@@H](NC(=O)[C@H](CCSC)NC(C)=O)CSSC[C@@H](C(=O)NCC(=O)N[C@@H](CO)C(=O)NCC(=O)N[C@@H](CO)C(=O)N[C@@H](CC(=O)O)C(=O)N[C@@H](Cc2ccc(O)cc2)C(=O)N[C@@H](CCCCN)C(=O)N[C@@H](CC(=O)O)C(=O)N[C@@H](CC(=O)O)C(=O)N[C@@H](CC(=O)O)C(=O)N[C@@H](CC(=O)O)C(=O)N[C@@H](CCCCN)C(N)=O)NC(=O)[C@H](CC(C)C)NC(=O)[C@H](Cc2c[nH]c3ccccc23)NC(=O)[C@H](CC(=O)O)NC(=O)[C@H](CO)NC1=O` (Ac-MCHYISDWLCGSGSDYKDDDDK-NH2; disulfide 2-10), the Kd on FGF-R4 ECD (setting [2]) was greater than 10000 nM; on FGF-R1C ECD it was greater than 10 µM; at FGF-R3C ECD, greater than 10 µM.

As for `CSCC[C@H](NC(C)=O)C(=O)N[C@@H](CCSC)C(=O)N[C@@H](CO)C(=O)N[C@@H](Cc1c[nH]cn1)C(=O)N[C@H]1CSSC[C@@H](C(=O)NCC(=O)N[C@@H](CO)C(=O)NCC(=O)N[C@@H](CO)C(=O)N[C@@H](CC(=O)O)C(=O)N[C@@H](Cc2ccc(O)cc2)C(=O)N[C@@H](CCCCN)C(=O)N[C@@H](CC(=O)O)C(=O)N[C@@H](CC(=O)O)C(=O)N[C@@H](CC(=O)O)C(=O)N[C@@H](CC(=O)O)C(=O)N[C@@H](CCCCN)C(N)=O)NC(=O)[C@H](CC(C)C)NC(=O)[C@H](CC(C)C)NC(=O)[C@H](C(C)C)NC(=O)[C@H](CCCCN)NC(=O)[C@H](Cc2ccccc2)NC(=O)[C@H](CC(C)C)NC(=O)[C@H](Cc2c[nH]c3ccccc23)NC1=O` (Ac-MMSHCWLFKVLLCGSGSDYKDDDDK-NH2; disulfide 5-13), the Kd on FGF-R4 ECD (setting [2]) was 239 nM; at FGF-R1C ECD, greater than 10 µM; at FGF-R3C ECD it was greater than 10 µM.

As for `CC[C@H](C)[C@@H]1NC(=O)[C@H](Cc2c[nH]cn2)NC(=O)[C@@H](NC(=O)[C@H](CCSC)NC(C)=O)CSSC[C@@H](C(=O)NCC(=O)N[C@@H](CO)C(=O)NCC(=O)N[C@@H](CO)C(=O)N[C@@H](CCC(=O)O)C(=O)N[C@@H](CCC(=O)O)C(=O)NCC(=O)N[C@@H](CO)C(=O)NCC(=O)N[C@@H](CO)C(=O)N[C@@H](CC(=O)O)C(=O)N[C@@H](Cc2ccc(O)cc2)C(=O)N[C@@H](CCCCN)C(=O)N[C@@H](CC(=O)O)C(=O)N[C@@H](CC(=O)O)C(=O)N[C@@H](CC(=O)O)C(=O)N[C@@H](CC(=O)O)C(=O)N[C@@H](CCCCN)C(N)=O)NC(=O)[C@H](Cc2c[nH]cn2)NC(=O)[C@H](CCCCN)NC(=O)[C@H](CCCNC(=N)N)NC(=O)[C@H](C(C)C)NC(=O)[C@H](CC(C)C)NC(=O)[C@H](CCC(N)=O)NC(=O)[C@H](Cc2c[nH]c3ccccc23)NC(=O)[C@H](Cc2ccc(O)cc2)NC(=O)[C@H](CCCNC(=N)N)NC1=O` (Ac-MCHIRYWQLVRKHCGSGSEEGSGSDYKDDDDK-NH2; disulfide 2-14), the results for the dissociation constant Kd at FGF-R4 ECD (setting [1]), on FGF-R1C ECD and on FGF-R3C ECD were 10 nM, greater than 10 µM and greater than 10 µM, respectively.

As for `CSCC[C@H](NC(C)=O)C(=O)N[C@H]1CSSC[C@@H](C(=O)NCC(=O)N[C@@H](CO)C(=O)NCC(=O)N[C@@H](CO)C(=O)N[C@@H](CC(=O)O)C(=O)N[C@@H](Cc2ccc(O)cc2)C(=O)N[C@@H](CCCCN)C(=O)N[C@@H](CC(=O)O)C(=O)N[C@@H](CC(=O)O)C(=O)N[C@@H](CC(=O)O)C(=O)N[C@@H](CC(=O)O)C(=O)N[C@@H](CCCCN)C(N)=O)NC(=O)[C@H](CCC(N)=O)NC(=O)[C@H](Cc2c[nH]cn2)NC(=O)[C@H](Cc2c[nH]c3ccccc23)NC(=O)[C@H](CC(C)C)NC(=O)[C@H](C)NC(=O)[C@H](CCC(=O)O)NC(=O)[C@H](Cc2ccc(O)cc2)NC(=O)[C@@H]2CCCN2C(=O)[C@H](Cc2c[nH]cn2)NC(=O)[C@H](CCCNC(=N)N)NC(=O)[C@H]([C@@H](C)O)NC(=O)[C@H](Cc2ccc(O)cc2)NC1=O` (Ac-MCYTRHPYEALWHQCGSGSDYKDDDDK-NH2; disulfide 2-15), the Kd is greater than 10000 nM on FGF-R4 ECD (setting [1]), greater than 10 µM at FGF-R1C ECD and greater than 10 µM on FGF-R3C ECD.

In the case of `CSCC[C@H](NC(C)=O)C(=O)N[C@H]1CSSC[C@@H](C(=O)NCC(=O)N[C@@H](CO)C(=O)NCC(=O)N[C@@H](CO)C(=O)N[C@@H](CC(=O)O)C(=O)N[C@@H](Cc2ccc(O)cc2)C(=O)N[C@@H](CCCCN)C(=O)N[C@@H](CC(=O)O)C(=O)N[C@@H](CC(=O)O)C(=O)N[C@@H](CC(=O)O)C(=O)N[C@@H](CC(=O)O)C(=O)N[C@@H](CCCCN)C(N)=O)NC(=O)[C@H](Cc2ccc(O)cc2)NC(=O)[C@H](Cc2ccccc2)NC(=O)[C@H](Cc2c[nH]c3ccccc23)NC(=O)[C@H](CCCCN)NC(=O)[C@H](Cc2ccc(O)cc2)NC(=O)[C@H](Cc2c[nH]c3ccccc23)NC(=O)[C@H](CCC(N)=O)NC(=O)[C@H](CC(C)C)NC(=O)[C@H]([C@@H](C)O)NC(=O)[C@H](C)NC(=O)[C@H](Cc2ccc(O)cc2)NC(=O)[C@H](CCCCN)NC1=O` (Ac-MCKYATLQWYKWFYCGSGSDYKDDDDK-NH2; disulfide 2-15), the Kd turned out to be 63 nM on FGF-R4 ECD (setting [1]), 0.114 µM at FGF-R1C ECD and 7.34 µM on FGF-R3C ECD.

Turning to `CSCC[C@H](NC(C)=O)C(=O)N[C@H]1CSSC[C@@H](C(=O)NCC(=O)N[C@@H](CO)C(=O)NCC(=O)N[C@@H](CO)C(=O)N[C@@H](CC(=O)O)C(=O)N[C@@H](Cc2ccc(O)cc2)C(=O)N[C@@H](CCCCN)C(=O)N[C@@H](CC(=O)O)C(=O)N[C@@H](CC(=O)O)C(=O)N[C@@H](CC(=O)O)C(=O)N[C@@H](CC(=O)O)C(=O)N[C@@H](CCCCN)C(N)=O)NC(=O)[C@H](Cc2c[nH]cn2)NC(=O)[C@H](Cc2c[nH]cn2)NC(=O)[C@H](Cc2ccccc2)NC(=O)[C@H](CC(C)C)NC(=O)[C@H](CC(C)C)NC(=O)[C@H](Cc2ccc(O)cc2)NC(=O)[C@H](Cc2ccc(O)cc2)NC(=O)[C@H](Cc2ccccc2)NC(=O)[C@H](CC(C)C)NC(=O)[C@H](CC(=O)O)NC(=O)[C@H](CCC(=O)O)NC1=O` (Ac-MCEDLFYYLLFHHCGSGSDYKDDDDK-NH2; disulfide 2-14), the Kd is 81 nM at FGF-R4 ECD (setting [1]), 4.54 µM at FGF-R1C ECD and greater than 10 µM on FGF-R3C ECD.
